Measurements reported in article PMC8584173, “The Cytotoxic Effect of Copper (II) Complexes with Halogenated 1,3-Disubstituted Arylthioureas on Cancer and Bacterial Cells” (International Journal of Molecular Sciences, 2021).

Key:
[1] = system: SW480 cells; experiment: LDH release assay, SW480; type: cell-based, human; conditions: 72 h
Description: (§1) The presence of lactate dehydrogenase (LDH) in culture medium indicates a disturbance of the integrity of the cellular membrane. The LDH activity was performed after 72 h incubation of cells (1 × 10^4 cells per well) in 96-well plates with selected compounds according to manufacturer’s protocol (Roche Diagnostics, Germany), as was described by Chrzanowska et al.. Compound mediated cytotoxicity was determined using equation: ((A test sample−A low control)/ (A high control−A low control)) × 100% (A-absorbance), where “low control” means cells in medium with 2% FBS without tested compounds, and “high control” means cells incubated in medium with 2% FBS and 1% Triton X-100 (100% LDH release). The cytotoxicity was expressed as percentage of LDH release as compared with the maximum release of LDH from Triton-X-100-treated cells.

[2] = system: PC3 cells; experiment: LDH release assay, PC3; type: cell-based, human; conditions: 72 h
Description: as §1

O=[N+]([O-])c1cc([N+]2=C(Nc3ccc(I)cc3)[S][Cu-2]23[S]C(Nc2ccc(I)cc2)=[N+]3c2ccc(Cl)c([N+](=O)[O-])c2)ccc1Cl [Compound 8, Copper (II) complex with 1-(4-iodophenyl)-3-(4-chloro-3-nitrophenyl)thiourea]
LDH release ([1]; SW480, 20 μM): 42%
LDH release ([1]; SW480, 40 μM): 46.4%
LDH release ([1]; SW480, 60 μM): 58%
LDH release ([2]; PC3, 10 μM): 27.2%
LDH release ([2]; PC3, 40 μM): 56.4%
LDH release ([2]; PC3, 60 μM): 64%
